Reference: patent US20240217948A1, “CRYSTALLINE FORMS OF A LPA1 ANTAGONIST” (Bristol-Myers Squibb Company, priority 2022, published 2024)

Tests used:
[1] = Moisture sorption isotherms; format: physicochemical; conditions: 25° C., 4-95% RH (FIG. 4)
Experimental: Moisture sorption isotherms were collected in a TA Instrument VTI-SA+ Vapor Sorption Analyzer using approximately 270 mg of sample in a 250 μL ceramic pan. The sample was dried at 30° C. until the loss rate of 0.005 wt %/min was obtained for 10 minutes. The sample was tested at 25° C. and 4, 5, 15, 25, 35, 45, 50, 65, 75, 85, and 95% RH. Equilibration at each RH was reached when the rate of 0.01 wt %/min for 35 minutes was achieved or a maximum of 600 minutes.

[2] = system: idiopathic pulmonary fibrosis; conditions: patients with IPF; cited from earlier work
[3] = system: progressive pulmonary fibrosis; conditions: patients with PPF, versus placebo, 52-week study period; cited from earlier work

## CCCN(C)C(=O)OCc1c(-c2ccc(O[C@H]3CCC[C@H](C(=O)O)C3)c(C)n2)nnn1C [Form A]
[1]
  hygroscopicity: non-hygroscopicity

## Cc1ccc(=O)n(-c2ccccc2)c1 [pirfenidone]
[2]
  decline in lung function: significantly reduce the decline in lung function

## COC(=O)c1ccc2c(c1)NC(=O)/C2=C(\Nc1ccc(N(C)C(=O)CN2CCN(C)CC2)cc1)c1ccccc1 [nintedanib]
[2]
  decline in lung function: significantly reduce the decline in lung function
[3]
  progression of lung fibrosis (annual rate of decline in FVC): slower progression of lung fibrosis
